Laboratory results from patent US7172907B2, “Cyanine dye labelling reagents with meso-substitution” (GE Healthcare Bio-Sciences Corp., priority 2003, dated 2007).

Tests used:
[1] = Hydrolytic stability in de-ionized water, fading of the dyes; assay type: physicochemical
[2] = Fluorescence quantum yield relative to Cy5; assay type: physicochemical; settings: expressed as fraction of that of Cy5
Protocol: (§1) 2-{N-Acetyl-N-phenyl}aminoethenyl-1,3,3-trimethylindoleriine and 2-{N-acetyl-N-phenyl}aminoethenyl-1-{6-carboxypentyl}-3,3-trimethylindolenine (20 mmoles of each) and 10 equivalents of cyanoacetic acid in pyridine (100 ml) were heated under reflux under Argon for 4 hours. At the end of the reaction, the pyridine was evaporated and the product purified by repeated HPLC purification followed by silica gel column chromatography with increasing amounts of MeOH in ethyl acetate as the eluant to give a pure product, 2-{5-[1-(5-carboxypentyl)-3,3-dimethyl-1,3-dihydro-2H-indol-2-ylidene]-3-cyano-1,3-pentadienyl}-1,3,3-trimethyl-3H-indolinium (meso-cyano Cy5). Absorption maximum (MeOH): 610 nm: Emission maximum (MeOH): 628 nm; Quantum yield: 0.65 that of Cy5.

[3] = Absorption and emission spectra of meso-cyano Cy5 in MeOH; assay type: physicochemical
Protocol: as §1

[4] = Photostability: ethanolic solution left in the room light, fading of the dyes; assay type: physicochemical
[5] = background values for known Cy dyes, X = Y = C(CH3)2; cited from earlier work

CN1/C(=C/C=C(C#N)/C=C/C2=[N+](CCCCCC(=O)O)c3ccccc3C2(C)C)C(C)(C)c2ccccc21 [meso-cyano Cy5, 2-{5-[1-(5-Carboxypentyl)-3,3-dimethyl-1,3-dihydro-2H-indol-2-ylidene]-3-cyano-1,3-pentadienyl}-1,3,3-trimethyl-3H-indolinium]
half-life ([1]; pH=6.85, read-out: Hydrolytic stability: half-life (t1/2) for fading of the dyes): > 150 h
Quantum yield [2]: 0.65
Absorption maximum [3]: 610 nm
Emission maximum [3]: 628 nm
half-life ([4]; read-out: Photostability: half-life (t1/2) for fading of the dyes): > 75 h

Cy5.5
Abs max [5]: 675 nm
Em max [5]: 694 nm

CCN1C(=CC=CC2=[N+](CCCCCC(=O)O)c3ccc(S(=O)(=O)O)cc3C2(C)C)C(C)(C)c2cc(S(=O)(=O)[O-])ccc21 [Cy3]
Abs max [5]: 550 nm
Em max [5]: 570 nm

CCN1/C(=C/C=C/C=C/C2=[N+](CCCCCC(=O)O)c3ccc(S(=O)(=O)O)cc3C2(C)C)C(C)(C)c2cc(S(=O)(=O)[O-])ccc21 [Cy5]
Hydrolytic stability: half-life (t1/2) for fading of the dyes ([1]; pH=6.85): 56 h
Abs max [5]: 649 nm
Em max [5]: 670 nm
Photostability: half-life (t1/2) for fading of the dyes [4]: 22 h
